Results published in ChEMBL document CHEMBL1201862, “PubChem BioAssay data set” (2004).
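In this assay, cells in 96-well plates receive the compound at five concentrations for 48 hours. Endpoints are linearly interpolated between the surrounding concentrations. The concentration for 50% growth inhibition is given as GI50.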 Active and inactive are the calls of the source. No stated cut-off is given here; in the data, active = GI50 up to about 1.1 µM and inactive = higher.

What was measured:
Experiment in all cases: DTP human tumour cell line panel, 48 h
SF-295 = test system: SF-295
MCF7 = test system: MCF7
SK-MEL-5 = test system: SK-MEL-5
SW-620 = test system: SW-620
SK-MEL-2 = test system: SK-MEL-2
TK-10 = test system: TK-10
UO-31 = test system: UO-31
HCT-116 = test system: HCT-116
SF-268 = test system: SF-268
Hs-578T = test system: Hs-578T
MDA-MB-435 = test system: MDA-MB-435
NCI-H23 = test system: NCI-H23
OVCAR-5 = test system: OVCAR-5
OVCAR-8 = test system: OVCAR-8
SK-MEL-28 = test system: SK-MEL-28
NCI-H522 = test system: NCI-H522
OVCAR-3 = test system: OVCAR-3
Malme-3M = test system: Malme-3M
SR = test system: SR
SK-OV-3 = test system: SK-OV-3

Measured: GI50

Cc1ccc(C(=O)N/N=C(\N=N\c2ccccc2C(=O)O)c2ccc(N(C)C)cc2)cc1
inactive: SF-295 41.6 µM | MCF7 > 100 µM | SK-MEL-5 > 100 µM | SW-620 > 100 µM | SK-MEL-2 > 100 µM | TK-10 > 100 µM | UO-31 80.4 µM | HCT-116 > 100 µM | SF-268 > 100 µM | Hs-578T > 100 µM | MDA-MB-435 22.9 µM | NCI-H23 > 100 µM | OVCAR-5 > 100 µM | OVCAR-8 > 100 µM | SK-MEL-28 > 100 µM | NCI-H522 46.3 µM | OVCAR-3 22.2 µM

Fc1cc(-c2cc(-c3ccccc3)n[nH]2)c(Cl)cc1Cl
inactive: SF-295 > 100 µM | SK-MEL-5 > 100 µM | Malme-3M > 100 µM | SW-620 > 100 µM | SK-MEL-2 > 100 µM | TK-10 > 100 µM | UO-31 > 100 µM | SR > 100 µM | HCT-116 > 100 µM | SF-268 > 100 µM | Hs-578T > 100 µM | SK-OV-3 > 100 µM | MDA-MB-435 > 100 µM | NCI-H23 > 100 µM | OVCAR-5 > 100 µM | OVCAR-8 > 100 µM | SK-MEL-28 > 100 µM | NCI-H522 > 100 µM | OVCAR-3 > 100 µM

COC(OC)C1OC(CO)C(n2cc(F)c(=O)[nH]c2=O)C1O (configuration not stated)
inactive: SF-295 > 100 µM | MCF7 > 100 µM | SW-620 > 100 µM | SK-MEL-2 > 100 µM | TK-10 > 100 µM | UO-31 > 100 µM | HCT-116 > 100 µM | SF-268 > 100 µM | Hs-578T > 100 µM | SK-OV-3 > 100 µM | MDA-MB-435 > 100 µM | NCI-H23 > 100 µM | OVCAR-5 > 100 µM | OVCAR-8 > 100 µM | SK-MEL-28 > 100 µM | NCI-H522 > 100 µM | OVCAR-3 > 100 µM

Cc1oc2c(c1C)S(=O)(=O)C(C#N)=C(N(C)C)N2
inactive: SF-295 > 100 µM | MCF7 > 100 µM | SK-MEL-5 > 100 µM | Malme-3M > 100 µM | SW-620 > 100 µM | SK-MEL-2 > 100 µM | TK-10 > 100 µM | UO-31 > 100 µM | HCT-116 > 100 µM | SF-268 > 100 µM | Hs-578T > 100 µM | SK-OV-3 > 100 µM | MDA-MB-435 > 100 µM | NCI-H23 > 100 µM | OVCAR-5 > 100 µM | OVCAR-8 > 100 µM | SK-MEL-28 > 100 µM | NCI-H522 > 100 µM | OVCAR-3 > 100 µM
